In data set [1] the test system is HIV-1. Description: Multicycle antiviral assay in MT4-GFP cells. Format: cell-based. Conditions: 10% NHS. The method, then:
Compounds were evaluated for their ability to prevent HIV-1 infection in MT4-GFP cells as described in Diamond, and colleagues. HIV-1 replication was monitored using the MT4-gag-GFP clone D3, and MT4 cells with a GFP reporter gene, the expression of which is dependent on the HIV-1 expressed proteins tat and rev. […] Proviral variants used for these studies were generated by site-directed mutagenesis in the WT R8 proviral plasmid. Virus was produced by transfection in 293T cells.
Briefly, MT4-GFP cells were cultured overnight with the appropriate HIV-1 variant at an approximate multiplicity of infection of 0.01. After approximately 19 h of infection, the cells were washed and resuspended in assay media containing 10% normal human serum (NHS) before being added to 384-well compound plates containing 10-point serial 3-fold dilutions of compound. Controls included no inhibitor (dimethyl sulfoxide [DMSO] only) and a combination of 3 antiviral agents, efavirenz, indinavir, and an integrase strand transfer inhibitor, L-002254051, at final concentrations of 4 µM each. The infected or treated cells were cultured at 37 °C, 5% CO2, and 90% humidity until evaluation of infection was conducted at approximately 48 and 72 h post-infection by counting the number of GFP cells in each well using an Acumen eX3 scanner (SPT Labtech; Melbourn, UK). The reproductive ratio, R, was calculated by dividing the number of infected cells at 72 h by the number at 48 h post-infection. The percentage inhibition caused by a test compound was calculated by the following formula:
inhibition = [1−(Rtest compound − Rpositive control)]/(RDMSO only − Rpositive control) × 100%\]
The dose–response curves of each test compound were plotted as percentage inhibition versus the test concentration.

In data set [2] the test system is HIV-1. Description: Single-cycle antiviral assay in PBMCs. Format: cell-based. The method, then: To evaluate the ability of inhibitors to prevent HIV-1 infection in primary cells, human PBMCs obtained from Biological Specialty Corporation (Colmar, PA, USA) were used to assess antiviral activity. The proviral variants used for these studies were generated by site-directed mutagenesis in a proviral vector derived from NL43 [52] that encodes GFP (pNLG1-P2A-GFP). Virus was produced by transfection in 293T cells.
PBMCs were activated with phytohemagglutinin (PHA) at 5 μg/mL in Roswell Park Memorial Institute (RPMI) 1640 medium containing 10% heat-inactivated fetal bovine serum (FBS) for 2–3 days. Compound plates were prepared by dispensing compounds dissolved in DMSO into 384-well poly-d-lysine-coated plates (0.2 μL per well) using an Echo acoustic dispenser (Labcyte; San Jose, CA, USA). Each compound was tested in a 10-point serial 3-fold dilution (typical final concentrations: 5,000 to 0.1 nM). Controls included no inhibitor (DMSO only) and a combination of 3 antiviral agents, efavirenz, indinavir, and the integrase strand transfer inhibitor, L-002254051, at final concentrations of 4 μM each. PHA-activated human PBMCs were washed and resuspended in RPMI 1640 containing 10% NHS and 30 units per mL of interleukin-2 (IL-2) at 6 × 10^5 cells per mL. PBMCs were added to the compound plates and cultured for 24 h at 37 °C, 5% CO2, and 90% humidity. The appropriate HIV-1 variant was added to the PBMCs and cultured at 37 °C, 5% CO2, and 90% humidity for an additional 24 h.
HIV-1–infected cells were quantified by counting the number of GFP cells in each well using an Acumen eX3 scanner (SPT Labtech; Melbourn, UK).

Data set [3] is described as follows: CellTiter-Glo (CTG) cytotoxicity in MT4-GFP cells. Particulars: human.
For data set [4], the system named is MT4-GFP cells. Description: CellTiter-Glo (CTG) cytotoxicity in MT4-GFP cells. Conditions: read-out: MT4-GFP CTG CC50, CellTiter-Glo.
The mark [5] stands for this setting: Human immunodeficiency virus 1, WT HIV-1, multicycle assay.
[6] abbreviates: Human immunodeficiency virus 1, PBMC, read-out: PBMC IC50, HIV-1, single-cycle assay, human PBMCs, 10% NHS.

Turning to `C#C[C@]1(CO)O[C@@H](n2cnc3c(N)nc(Cl)nc32)C[C@@H]1O` [Compound 1, (2R,3S,5R)-5-(6-amino-2-chloro-9H-purin-9-yl)-2-ethynyl-2-(hydroxymethyl)-tetrahydrofuran-3-ol], the results for the IC50 in data set [1] (setting [5]) and in data set [2] (setting [6]) were 2.7 nM and 0.4 nM, respectively. Also, the CC50 in data set [3] is over 42 µM.

Turning to `C#C[C@]1(CO)O[C@@H](n2cnc3c(N)nc(C)nc32)C[C@@H]1O` [Compound 2, (2R,3S,5R)-5-(6-amino-2-methyl-9H-purin-9-yl)-2-ethynyl-2-(hydroxymethyl)-tetrahydrofuran-3-ol], the IC50 in data set [1] (setting [5]) amounted to 109 nM; in data set [2] (setting [6]) it was 35.9 nM. In data set [3], this compound gave a CC50 of over 42 µM.

As for `C#C[C@]1(CO)O[C@@H](n2cnc3c(N)nc(C(F)(F)F)nc32)C[C@@H]1O` [Compound 3, (2R,3S,5R)-5-(6-amino-2-(trifluoromethyl)-9H-purin-9-yl)-2-ethynyl-2-(hydroxymethyl)tetrahydrofuran-3-ol], the half-inhibitory concentration (IC50) is over 42000 nM in data set [1] (setting [5]) and over 11900 nM in data set [2] (setting [6]). Moreover, the CC50 in data set [3] is over 42 µM.

On to `C#C[C@]1(CO)O[C@@H](n2cnc3c(NC4CC4)nc(F)nc32)C[C@@H]1O` [Compound 4, (2R,3S,5R)-5-(6-(cyclopropylamino)-2-fluoro-9H-purin-9-yl)-2-ethynyl-2-(hydroxymethyl)tetrahydrofuran-3-ol], for which the IC50 in data set [1] (setting [5]) came out at 4300 nM; in data set [2] (setting [6]) it was 3290 nM. In data set [3], the CC50 was over 42 µM.

For the compound `C#C[C@]1(CO)O[C@@H](n2ccc3c(N)ncnc32)C[C@@H]1O` [Compound 5, (2R,3S,5R)-5-(4-amino-7H-pyrrolo[2,3-d]pyrimidin-7-yl)-2-ethynyl-2-(hydroxymethyl)tetrahydrofuran-3-ol], the half-maximal inhibitory concentration (IC50) in data set [1] (setting [5]) came to 1.9 nM; in data set [2] (setting [6]), 0.9 nM. The compound further had a 50% cytotoxic concentration (CC50) in data set [3] of 30.8 µM.

For `C#C[C@]1(CO)O[C@@H](n2c(C)cc3c(N)ncnc32)C[C@@H]1O` [Compound 6, (2R,3S,5R)-5-(4-amino-6-methyl-7H-pyrrolo[2,3-d]pyrimidin-7-yl)-2-ethynyl-2-(hydroxymethyl)tetrahydrofuran-3-ol], the IC50 in data set [1] (setting [5]) and in data set [2] (setting [6]) was over 2000 nM each time. In data set [3], this compound showed a half-maximal cytotoxic concentration (CC50) of over 42 µM.

`C#C[C@]1(CO)O[C@@H](n2cc(C)c3c(N)ncnc32)C[C@@H]1O` [Compound 7, (2R,3S,5R)-5-(4-amino-5-methyl-7H-pyrrolo[2,3-d]pyrimidin-7-yl)-2-ethynyl-2-(hydroxymethyl)tetrahydrofuran-3-ol]: the results for the IC50 in data set [1] (setting [5]) and in data set [2] (setting [6]) were 1680 nM and 682 nM, respectively. Also, the CC50 in data set [3] is over 42 µM.

As for `C#C[C@]1(CO)O[C@@H](n2cc(-c3ccn[nH]3)c3c(N)ncnc32)C[C@@H]1O` [Compound 10, (2R,3S,5R)-5-(4-amino-5-(1H-pyrazol-5-yl)-7H-pyrrolo[2,3-d]pyrimidin-7-yl)-2-ethynyl-2-(hydroxymethyl)tetrahydrofuran-3-ol], the IC50 in data set [1] (setting [5]) amounted to 1590 nM; in data set [2] (setting [6]) it was 907 nM. For the same compound, in data set [3], the CC50 is over 42 µM.

As for `C#C[C@]1(CO)O[C@@H](n2ccc3c(N)nc(F)nc32)C[C@@H]1O` [Compound 11, (2R,3S,5R)-5-(4-amino-2-fluoro-7H-pyrrolo[2,3-d]pyrimidin-7-yl)-2-ethynyl-2-(hydroxymethyl)tetrahydrofuran-3-ol], the IC50 in data set [1] (setting [5]) was found to be 16.8 nM; in data set [2] (setting [6]) it was 10.5 nM. This compound showed a half-maximal cytotoxic concentration (CC50) in data set [3] of over 42 µM.

As to `C#C[C@]1(CO)O[C@@H](n2cc(F)c3c(N)nc(Cl)nc32)C[C@@H]1O` [Compound 13, (2R,3S,5R)-5-(4-amino-2-chloro-5-fluoro-7H-pyrrolo[2,3-d]pyrimidin-7-yl)-2-ethynyl-2-(hydroxymethyl)tetrahydrofuran-3-ol], the values for the 50% inhibitory concentration (IC50) in data set [1] (setting [5]) and in data set [2] (setting [6]) were 2.4 nM and 0.2 nM, respectively. For the same compound, in data set [1] (WT HIV-1, multicycle assay), the “MT4-GFP IC50” value is “single-digit nanomolar potency”. Further, the “PBMC IC50” value in data set [2] (HIV-1, single-cycle assay, human PBMCs, 10% NHS) was “subnanomolar potency”. In addition, the CC50 in data set [3] was over 42 µM.

On to `C#C[C@]1(CO)O[C@@H](n2ccc3c(N)nc(N)nc32)C[C@@H]1O` [Compound 14, (2R,3S,5R)-5-(2,4-diamino-7H-pyrrolo[2,3-d]pyrimidin-7-yl)-2-ethynyl-2-(hydroxymethyl)tetrahydrofuran-3-ol], for which the half-inhibitory concentration (IC50) is 277 nM in data set [1] (setting [5]) and 257 nM in data set [2] (setting [6]). The compound also returned a CC50 in data set [3] of over 42 µM.

For `C#C[C@]1(CO)O[C@@H](n2nnc3c(N)ncnc32)C[C@@H]1O` [Compound 15, (2R,3S,5R)-5-(7-amino-3H-[1,2,3]triazolo[4,5-d]pyrimidin-3-yl)-2-ethynyl-2-(hydroxymethyl)tetrahydrofuran-3-ol], the IC50 in data set [1] (setting [5]) amounted to 7590 nM; in data set [2] (setting [6]), 7570 nM. Moreover, in data set [1] (WT HIV-1, multicycle assay), the “MT4-GFP IC50” value is “completely inactive”. In data set [3], this compound had a CC50 of over 42 µM.

`C#C[C@]1(CO)O[C@@H](c2ccc3c(N)ncnn23)C[C@@H]1O` [Compound 16, (2R,3S,5R)-5-(4-aminopyrrolo[2,1-f][1,2,4]triazin-7-yl)-2-ethynyl-2-(hydroxymethyl)tetrahydrofuran-3-ol]: the IC50 in data set [1] (setting [5]) was 21.6 nM; in data set [2] (setting [6]) it was 19.2 nM. The compound also yielded a half-maximal cytotoxic concentration (CC50) in data set [3] of 22.3 µM.

For the compound `C#CC1(CO)CC(n2cnc3c(N)nc(F)nc32)CC1O` (stereo not drawn) [Compound 17, 4-(6-amino-2-fluoro-9H-purin-9-yl)-2-ethynyl-2-(hydroxy-methyl)cyclopentan-1-ol], the 50% inhibitory concentration (IC50) in data set [1] (setting [5]) was 5020 nM; in data set [2] (setting [6]) it was 383 nM. The same compound gave a CC50 in data set [3] of over 42 µM.

Consider `C#CC1(CO)CC(n2cnc3c(N)nc(Cl)nc32)CC1O` (stereo not drawn) [Compound 18, 4-(6-amino-2-chloro-9H-purin-9-yl)-2-ethynyl-2-(hydroxy-methyl)-cyclopentan-1-ol], for which the values for the 50% inhibitory concentration (IC50) in data set [1] (setting [5]) and in data set [2] (setting [6]) were 22700 nM and 982 nM, respectively. The half-maximal cytotoxic concentration (CC50) in data set [3] was over 42 µM.

Take `C#C[C@]1(CO)C[C@@H](n2ccc3c(N)nc(Cl)nc32)C[C@@H]1O` [Compound 19, (1S,2S,4R)-4-(4-amino-2-chloro-7H-pyrrolo[2,3-d]pyrimidin-7-yl)-2-ethynyl-2-(hydroxymethyl)cyclopentan-1-ol]: the half-inhibitory concentration (IC50) turned out to be 22600 nM in data set [1] (setting [5]) and 1160 nM in data set [2] (setting [6]). The half-maximal cytotoxic concentration (CC50) in data set [3] is over 42 µM.

Regarding `C#C[C@]1(CO)C[C@@H](n2cnc3c(=O)[nH]c(N)nc32)C[C@@H]1O` [Compound 20, 2-amino-9-((1R,3S,4S)-3-ethynyl-4-hydroxy-3-(hydroxymethyl)-cyclopentyl)-1,9-dihydro-6H-purin-6-one], the figures for the IC50 in data set [1] (setting [5]) and in data set [2] (setting [6]) were 103 nM and 20.4 nM, respectively. This compound had a CC50 in data set [3] of over 42 µM.

For “(2R,3S,5R)-5-(4-amino-5-fluoro-7H-pyrrolo[2,3-d]pyrimidin-7-yl)-2-ethynyl-2-(hydroxymethyl)tetrahydrofuran-3-ol [Compound 9]”, the IC50 stood at 37200 nM in data set [1] (WT HIV-1, multicycle assay) and 3410 nM in data set [2] (HIV-1, single-cycle assay, human PBMCs, 10% NHS, read-out: PBMC IC50). For the same compound, the CC50 in data set [4] is over 42 µM.

These data come from publication PMC12380353, “MK-8527 is a novel inhibitor of HIV-1 reverse transcriptase translocation with potential for extended-duration dosing” (PLOS Biology, 2025).
